Patent US20180244611A1, “Modulators of the Cystic Fibrosis Transmembrane Conductance Regulator Protein and Methods of Use” (AbbVie S.à.r.l., priority 2017, published 2018)

Assays:
F508delCFTR [1] = target: T1, F508delCFTR (Homo sapiens, UniProt P13569, DEL508-508); assay: Cell Surface Expression-Horse Radish Peroxidase (CSE-HRP) assay, test compound with co-corrector; type: cell-based; settings: with 2 μM co-corrector; for Maximum % activity (with co-corrector): maximum at any tested concentration, normalized to positive control;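 as to Maximum % activity (with co-corrector): percent of 2 µM positive control corrector over DMSO; co-corrector is that same compound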
T1 construct: expressed in transfected cells; host or cells: CFBE41o- human lung-derived epithelial cells (CFBE41o-F508delCFTR-HRP), doxycycline-inducible
T1 sequence (P13569 with tags, fused parts or gaps DEL508-508): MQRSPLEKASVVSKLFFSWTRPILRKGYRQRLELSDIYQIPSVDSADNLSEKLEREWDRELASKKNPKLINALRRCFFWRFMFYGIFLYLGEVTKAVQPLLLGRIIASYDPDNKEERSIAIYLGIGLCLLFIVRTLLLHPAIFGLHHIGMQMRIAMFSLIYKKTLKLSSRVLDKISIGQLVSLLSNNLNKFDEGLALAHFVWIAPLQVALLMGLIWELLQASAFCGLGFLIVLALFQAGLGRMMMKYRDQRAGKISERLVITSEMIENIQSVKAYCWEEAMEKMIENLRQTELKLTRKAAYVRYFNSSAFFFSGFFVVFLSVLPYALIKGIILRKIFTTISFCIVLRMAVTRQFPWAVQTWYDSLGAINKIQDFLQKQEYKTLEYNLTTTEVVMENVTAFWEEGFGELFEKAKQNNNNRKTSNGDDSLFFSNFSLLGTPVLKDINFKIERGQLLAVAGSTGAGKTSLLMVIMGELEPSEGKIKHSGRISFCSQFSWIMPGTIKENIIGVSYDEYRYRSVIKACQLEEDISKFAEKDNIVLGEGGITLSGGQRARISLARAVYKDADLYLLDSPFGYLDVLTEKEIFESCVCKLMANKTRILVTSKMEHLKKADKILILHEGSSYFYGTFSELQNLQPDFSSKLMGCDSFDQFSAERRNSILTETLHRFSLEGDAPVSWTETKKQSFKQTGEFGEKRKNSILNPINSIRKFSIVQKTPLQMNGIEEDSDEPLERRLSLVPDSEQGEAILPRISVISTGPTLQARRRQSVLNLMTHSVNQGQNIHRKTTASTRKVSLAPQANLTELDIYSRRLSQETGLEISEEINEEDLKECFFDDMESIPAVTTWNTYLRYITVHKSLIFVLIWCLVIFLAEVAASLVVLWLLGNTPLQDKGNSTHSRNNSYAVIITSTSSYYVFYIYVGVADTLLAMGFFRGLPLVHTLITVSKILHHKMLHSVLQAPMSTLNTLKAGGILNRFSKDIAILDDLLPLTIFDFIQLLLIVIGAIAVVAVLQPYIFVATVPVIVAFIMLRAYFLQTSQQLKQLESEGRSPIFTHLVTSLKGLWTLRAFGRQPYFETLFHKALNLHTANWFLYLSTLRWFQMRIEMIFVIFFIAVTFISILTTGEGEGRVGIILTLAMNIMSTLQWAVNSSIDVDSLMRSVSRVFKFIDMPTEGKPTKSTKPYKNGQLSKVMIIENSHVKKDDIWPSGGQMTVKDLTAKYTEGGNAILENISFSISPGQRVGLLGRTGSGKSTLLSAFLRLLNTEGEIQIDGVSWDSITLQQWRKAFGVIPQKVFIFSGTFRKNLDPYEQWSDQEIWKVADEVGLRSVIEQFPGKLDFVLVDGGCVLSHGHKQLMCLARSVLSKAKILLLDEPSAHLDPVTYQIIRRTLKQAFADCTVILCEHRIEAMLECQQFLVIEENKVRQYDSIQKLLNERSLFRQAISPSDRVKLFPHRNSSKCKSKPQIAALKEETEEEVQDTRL
Description: (§1) Cell Surface Expression-Horse Radish Peroxidase (CSE-HRP) Assay
(§2) A cellular assay for measuring the F508delCFTR cell surface expression after correction with test compounds either without or with a co-corrector (2 μM of 3-[(2R,4R)-4-({[1-(2,2-difluoro-1,3-benzodioxol-5-yl)cyclopropyl]carbonyl}amino)-7-methoxy-3,4-dihydro-2H-chromen-2-yl]benzoic acid), was developed in human lung derived epithelial cell line (CFBE41o-) (Veit G et al, (2012) Mol Biol Cell. 23(21): 4188-4202). The development was achieved by expressing the F508delCFTR mutation along with a horseradish peroxidase (HRP) in the fourth exofacial loop, and then measuring the HRP activity using luminescence readout from these cells, CFBE41o-F508delCFTR-HRP, that were incubated overnight with the test corrector compounds, either without or with the co-corrector. For this primary assay, the CFBE41o-F508delCFTR-HRP cells were plated in 384-well plates (Greiner Bio-one; Cat 781080) at 4,000 cells/well along with 0.5 μg/mL doxycycline to induce the F508delCFTR-HRP expression and further incubated at 37° C., 5% CO2 for 72 hours. The test compounds were then added either without or with a co-corrector at the required concentrations and further incubated for 18-24 hours at 33° C. The highest concentration tested was 20 μM with an 8-point concentration response curve using a 3-fold dilution in both the test compound without or with the co-corrector. Three replicate plates were run to determine one EC50. All plates contained negative controls (dimethyl sulfoxide, DMSO) and positive control (2 μM of 3-[(2R,4R)-4-({[1-(2,2-difluoro-1,3-benzodioxol-5-yl)cyclopropyl]carbonyl}amino)-7-methoxy-3,4-dihydro-2H-chromen-2-yl]benzoic acid) as well as on-plate concentration response of the positive control. Post incubation, the plates were washed 5× times with Dulbecco's phosphate buffered saline (DPBS), followed by the addition of the HRP substrate, luminol (50 μL), and measuring the HRP activity using luminescence readout on EnVision® Multilabel Plate Reader (Perkin Elmer; product number 2104-0010). The raw counts from the experiment were analyzed using Accelrys® Assay Explorer v3.3.
(§3) Z′ greater than 0.5 was used as passing quality control criteria for the plates.
(§4) 1−[3*SDPositive Control+3*SDNegative Control/Absolute (MeanPositive Control−MeanNegative Control)]
(§5) wherein “SD” is standard deviation.
(§6) The % activity measured at each of the 8 test concentrations of the test compound added either without or with a co-corrector (2 μM of 3-[(2R,4R)-4-({[1-(2,2-difluoro-1,3-benzodioxol-5-yl)cyclopropyl]carbonyl}amino)-7-methoxy-3,4-dihydro-2H-chromen-2-yl]benzoic acid) was normalized to the on-plate positive control using the following formulae:
activity (Test compound with co-corrector)=[(test compound with co-corrector response−DMSO response)/(positive control response−DMSO response)]*100
(§7) The maximum % activity achieved for the test compound either without or with a co-corrector at any tested concentration is presented in Table 1 along with the respective EC50's calculated using the following general sigmoidal curve with variable Hill slope equation (described as Model 42 in the Accelrys® Assay Explorer v3.3 software):
(§8) General sigmoidal curve with concentration, response, top, bottom, EC50 and Hill slope. This model describes a sigmoidal curve with an adjustable baseline, a. The equation can be used to fit curves where response is either increasing or decreasing with respect to the independent variable, “x”.
“x” is a concentration of drug under test. “y” is the response. “a” is the maximum response, and “d” is the minimum response “c” is the inflection point (EC50) for the curve. That is, “y” is halfway between the lower and upper asymptotes when x=c. “b” is the slope-factor or Hill coefficient. The sign of b is positive when the response increases with increasing dose and is negative when the response decreases with increasing dose (inhibition).

F508delCFTR [2] = target: T1, F508delCFTR; assay: Cell Surface Expression-Horse Radish Peroxidase (CSE-HRP) assay, test compound without co-corrector; type: cell-based; settings: for Emax: maximum at any tested concentration, normalized to positive control, without co-corrector; for EC50: test compound without co-corrector;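 as to Emax: percent of on-plate 2 µM positive control corrector response over DMSO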
Description: as §1, §2, §3, §4, §5, §6
% activity (Test compound without co-corrector)=[(test compound without co-corrector response−DMSO response)/(positive control response−DMSO response)]*100%
as §7, §8
“x” is a concentration of drug under test. “y” is the response. “a” is the maximum response, and “d” is the minimum response “c” is the inflection point (EC50) for the curve. That is, “y” is halfway between the lower and upper asymptotes when x=c. “b” is the slope-factor or Hill coefficient. The sign of b is positive when the response increases with increasing dose and is negative when the response decreases with increasing dose (inhibition). The data is presented with the qualifiers shown below: […]

Row | SMILES | Maximum % activity (with co-corrector) (F508delCFTR [1]) | EC50 (F508delCFTR [1]) [µM] | Emax (F508delCFTR [2]) [%] | EC50 (F508delCFTR [2]) [µM]
1 | COc1cccc2c1CCC2C(=O)NS(=O)(=O)c1cccc2ccccc12 (centres unmarked) [Example I-1, 4-methoxy-N-(naphthalene-1-sulfonyl)-2,3-dihydro-1H-indene-1-carboxamide] | +++ (≥350) | 3 to 10 | ≥ 150 | 3 to 10
2 | O=C(NS(=O)(=O)c1cccc2ccccc12)C1CCCc2cccc(Cl)c21 (centres unmarked) [Example I-2, 8-chloro-N-(naphthalene-1-sulfonyl)-1,2,3,4-tetrahydronaphthalene-1-carboxamide] | +++ (≥350) | < 3 | ≥ 150 | 3 to 10
3 | COc1cccc2c1CCC[C@H]2C(=O)NS(=O)(=O)c1cccc2ccccc12 [Example I-3, (1R)-5-methoxy-N-(naphthalene-1-sulfonyl)-1,2,3,4-tetrahydronaphthalene-1-carboxamide] | +++ (≥350) | 3 to 10 | ≥ 150 | 3 to 10
4 | COc1cccc2c1CCCC2C(=O)NS(=O)(=O)c1cccc2ccccc12 (centres unmarked) [Example I-4, 5-methoxy-N-(naphthalene-1-sulfonyl)-1,2,3,4-tetrahydronaphthalene-1-carboxamide] | +++ (≥350) | 3 to 10 | ≥ 150 | 3 to 10
5 | O=C(NS(=O)(=O)c1cccc2ccccc12)C1(Cc2ccccc2)CCc2c(Cl)cccc21 (centres unmarked) [Example I-5, 1-benzyl-4-chloro-N-(naphthalene-1-sulfonyl)-2,3-dihydro-1H-indene-1-carboxamide] | +++ (≥350) | < 3 | ≥ 150 | < 3
6 | COc1cccc2c1CC[C@@]2(C)C(=O)NS(=O)(=O)c1cccc2ccccc12 [Example I-6, (1R)-4-methoxy-1-methyl-N-(naphthalene-1-sulfonyl)-2,3-dihydro-1H-indene-1-carboxamide] | +++ (≥350) | 3 to 10 | ≥ 150 | 3 to 10
7 | CCC1(C(=O)NS(=O)(=O)c2cccc3ccccc23)CCc2c(Cl)cccc21 (centres unmarked) [Example I-7, 4-chloro-1-ethyl-N-(naphthalene-1-sulfonyl)-2,3-dihydro-1H-indene-1-carboxamide] | +++ (≥350) | < 3 | ≥ 150 | < 3
8 | O=C(NS(=O)(=O)c1cccc2ccccc12)C1CCc2c(Cl)cccc21 (centres unmarked) [Example I-8, 4-chloro-N-(naphthalene-1-sulfonyl)-2,3-dihydro-1H-indene-1-carboxamide] | +++ (≥350) | 3 to 10 | ≥ 150 | 3 to 10

Now from value to molecule:

Row | Maximum % activity (with co-corrector) (F508delCFTR [1]) | EC50 (F508delCFTR [1]) [µM] | Emax (F508delCFTR [2]) [%] | EC50 (F508delCFTR [2]) [µM] | SMILES
9 | ++ (≥150 and <350) | < 3 | 50 to 150 | 3 to 10 | Cc1ccccc1S(=O)(=O)NC(=O)[C@H]1CCc2c(Cl)cccc21 (single isomer, unassigned) [II-29]
10 | +++ (≥350) | < 3 | ≥ 150 | < 3 | COc1cccc2c1CCCC2(Cc1ccccc1)C(=O)NS(=O)(=O)c1cccc2ccccc12 (centres unmarked) [Example I-9, 1-benzyl-5-methoxy-N-(naphthalene-1-sulfonyl)-1,2,3,4-tetrahydronaphthalene-1-carboxamide]
11 | +++ (≥350) | < 3 | ≥ 150 | 3 to 10 | CCC1(C(=O)NS(=O)(=O)c2cccc3ccccc23)CCCc2c(OC)cccc21 (centres unmarked) [Example I-10, 1-ethyl-5-methoxy-N-(naphthalene-1-sulfonyl)-1,2,3,4-tetrahydronaphthalene-1-carboxamide]
12 | +++ (≥350) | < 3 | ≥ 150 | < 3 | O=C(NS(=O)(=O)c1cccc2ccccc12)[C@@H]1CCCc2cccc(Cl)c21 [Example I-11, (1R)-8-chloro-N-(naphthalene-1-sulfonyl)-1,2,3,4-tetrahydronaphthalene-1-carboxamide]
13 | +++ (≥350) | < 3 | ≥ 150 | 3 to 10 | O=C(NS(=O)(=O)c1cccc2ccccc12)[C@H]1CCCc2cccc(Cl)c21 [Example I-12, (1S)-8-chloro-N-(naphthalene-1-sulfonyl)-1,2,3,4-tetrahydronaphthalene-1-carboxamide]
14 | ++ (≥150 and <350) | < 3 | < 50 | ≥ 10 | CCC1(C(=O)NS(=O)(=O)c2cccc3c2OC(F)(F)O3)CCc2c(Cl)cccc21 (centres unmarked) [Example I-13, 4-chloro-N-(2,2-difluoro-2H-1,3-benzodioxole-4-sulfonyl)-1-ethyl-2,3-dihydro-1H-indene-1-carboxamide]
15 | +++ (≥350) | < 3 | ≥ 150 | < 3 | CC1(C(=O)NS(=O)(=O)c2cccc3ccccc23)CCc2cccc(Cl)c21 (centres unmarked) [Example I-14, 7-chloro-1-methyl-N-(naphthalene-1-sulfonyl)-2,3-dihydro-1H-indene-1-carboxamide]
16 | +++ (≥350) | < 3 | ≥ 150 | < 3 | COc1ccc(Br)c2c1CCCC2C(=O)NS(=O)(=O)c1cccc2ccccc12 (centres unmarked) [Example I-15, 8-bromo-5-methoxy-N-(naphthalene-1-sulfonyl)-1,2,3,4-tetrahydronaphthalene-1-carboxamide]
17 | +++ (≥350) | < 3 | 50 to 150 | < 3 | O=C(NS(=O)(=O)c1cccc2ccccc12)C1(CCN2CCC(F)(F)C2)CCc2c(Cl)cccc21 (centres unmarked) [Example I-16, 4-chloro-1-[2-(3,3-difluoropyrrolidin-1-yl)ethyl]-N-(naphthalene-1-sulfonyl)-2,3-dihydro-1H-indene-1-carboxamide]
18 | +++ (≥350) | < 3 | 50 to 150 | < 3 | CC[C@]1(C(=O)NS(=O)(=O)c2cccc3ccccc23)CCc2c(Cl)cccc21 [Example I-17, (1S)-4-chloro-1-ethyl-N-(naphthalene-1-sulfonyl)-2,3-dihydro-1H-indene-1-carboxamide]
19 | +++ (≥350) | < 3 | ≥ 150 | < 3 | CC[C@@]1(C(=O)NS(=O)(=O)c2cccc3ccccc23)CCc2c(Cl)cccc21 [Example I-18, (1R)-4-chloro-1-ethyl-N-(naphthalene-1-sulfonyl)-2,3-dihydro-1H-indene-1-carboxamide]
20 | +++ (≥350) | < 3 | ≥ 150 | 3 to 10 | COc1ccc(Br)c2c1C(C(=O)NS(=O)(=O)c1cccc3ccccc13)CC2 (centres unmarked) [Example I-19, 4-bromo-7-methoxy-N-(naphthalene-1-sulfonyl)-2,3-dihydro-1H-indene-1-carboxamide]
